Data as given in patent US20170258747A1, “GLUTAMINE ENRICHED NUTRITIONAL COMPOSITION FOR PRETERM INFANTS” (N.V. Nutricia, priority 2012, published 2017).

Legend:
[1] = system: VLBL infants; details: supplementation with glutamine in VLBL infants; cited from earlier work
[2] = system: very preterm and/or VLBW children; experiment: Brain cortical volumes by MRI at school age after enteral glutamine supplementation, days 3-30 of life; type: in vivo, human
Method: (§1) A randomized, placebo controlled clinical trial was performed. For a detailed protocol of the study, see van den Berg et al, 2004, Glutamine-enriched enteral nutrition in very low birth weight infants. Design of a double-blind randomised controlled trial [ISRCTN73254583], BMC Pediatrics 4:17.
(§2) In short: Infants with a gestational age <32 weeks and/or birth weight <1500 g were enrolled. In total 52 very preterm and/or VLBW children, which had taken part in a randomized controlled trial on enteral glutamine supplementation between day 3 and 30 of life, participated in this follow up study at the mean age of 8.6 years (SD=0.3 years). 30 infants were in the control group and 22 in the glutamine supplementation group. Also comparisons were made with a control group (n=52) of term born infants.
(§3) The glutamine nutritional supplement was in powder form and contained 82 wt. % L-glutamine in total and 18 wt. % glucose (nitrogen 15.5 wt/wt %; 371 kcal/100 g), whereas the isonitrogenous control powder contained 100 wt. % L-alanine (nitrogen 15.7 wt/wt %, 435 kcal/100 g). The two powders were indistinguishable by appearance, colour and smell. Between days 3 and 30 of life, supplementation was administered in increasing doses to a maximum of 0.3 g/kg glutamine per day in the glutamine group. Initially, the supplementation dose was based on birth weight. After 2 weeks the dose was adjusted to actual body weight. Two members of the nursing staff daily added supplementation to breast milk or to preterm formula (Nenatal®, Nutricia Nederland B.V., Zoetermeer, The Netherlands), according to the parents' choice. Per 100 ml, Nenatal® provides 78 kcal, 2.1 g protein (casein-whey protein weight ratio 40:60), 4.4 g fat and 7.5 g carbohydrate. […] Protocol guidelines for the introduction of parenteral and enteral nutrition are disclosed in van den Berg et al., 2004.
(§4) All statistical analyses are performed on an intention to treat basis. In addition, alternative per protocol analyses are performed, excluding all patients who are not treated according to protocol, defined as more than 3 consecutive days or more than a total of 5 days on minimal enteral feeding or without supplementation. A p value<0.05 is considered significant (two-tailed). SPSS 9.0 (SPSS Inc., Chicago, Ill., USA) and STAT 7.0 (Stat-Corp LP, College Station, Tex., USA) are used for data analysis. A p value of 0.1 or below is considered to represent a realistic effect, a trend. Due to the small size of the groups also the effect size is taken into account. An effect size above 0.4 is considered to represent a trend.
Brain cortical volumes were determined by MRI and calculated using FSL software “FAST” and corrected for age at MM scan, gender and body weight for gestational age. […] This was the case for intracranial volume, grey matter, white matter and cerebellum volume.

[3] = system: very preterm and/or VLBW children; experiment: Brain subcortical volumes by MRI at school age after enteral glutamine supplementation, days 3-30 of life; type: in vivo, human
Method: as §1, §2, §3, §4
Brain subcortical volumes were determined by Mill and calculated using FSL software “FAST” and corrected for age at Mill scan, gender and body weight for gestational age. […] This was the case for the brain stem, thalamus, putamen, caudate nucleus, hippocampus, globus pallidum, amygdale, nucleus accumbens and the corpus callosum volume.

[4] = system: very preterm and/or VLBW children; experiment: Intellectual development, short form of WISC-III; type: in vivo, human; details: mean, sd 17.7, n=30; scores normalised with a mean of 100 (SD 15); p=0.12 versus control
Method: Intellectual development was measured in the same group of infants as example 1 by a short form of the Wechsler Intelligence Scale for Children-III (WISC-III), including the subtests Vocabulary and Block Design. […]. Both subtests correlate strongly (r 0.90) with full-scale intelligence quotient (FSIQ). Scores on this test were normalised with a mean of 100 (SD 15). There was a trend (p=0.12 when adjusted for gestational age and socioeconomic status) in improved IQ (WISC-III FSIQ being 102, sd 17.7, n=30) in the glutamine group compared to the control group (WISC-III FSIQ 93.6 sd 17.2 n=34).

[5] = system: glutamine fed preterm group; experiment: fMRI neuronal activation later in life; type: in vivo, human
From the text: The improved brain development established at school age is indicative for improvement in neurocognitive functioning, behavioral and/or motional development, improving neuronal activation during interference task or during visuo-spatial working memory task, improvement of visuomotor skills (caterpillar-task).

[6] = system: VLBW infants; details: in the first year of life and at the age of 6; cited from earlier work
[7] = system: VLBW infants; details: at age of 2 years; cited from earlier work
[8] = glutamine supplemented versus control preterm group
[9] = mean, MRI at mean age 8.6 years, max 0.3 g/kg glutamine per day, days 3-30 of life
[10] = mean, MRI at mean age 8.6 years

NC(=O)CC[C@H](N)C(=O)O [Glutamine, L-glutamine]
Infectious morbidity [1]: lowers | Effect size, cerebellum ([2]; control versus glutamine group): 0.41 | Effect size, grey matter ([2]; control versus glutamine group): 0.29 | Effect size, intracranial volume ([2]; control versus glutamine group): 0.48 | Effect size, white matter ([2]; control versus glutamine group): 0.54 | Cerebellum volume compared with preterm control group [2, 8]: tendency for an increase | Cortical brain volumes compared with preterm control group [2, 8]: higher than in the control group | Intracranial volume compared with preterm control group [2, 8]: tendency for an increase | White matter volume compared with preterm control group [2, 8]: significantly higher | Cerebellum volume [2, 9]: 110.89 cm^3 | Grey matter volume [2, 9]: 727.4 cm^3 | Intracranial volume [2, 9]: 1649.8 cm^3 | White matter volume [2, 9]: 496.5 cm^3 | Effect size, amygdala ([3]; control versus glutamine group): 0.46 | Effect size, brain stem ([3]; control versus glutamine group): 0.54 | Effect size, caudate nucleus ([3]; control versus glutamine group): 0.10 | Effect size, corpus callosum ([3]; control versus glutamine group): 0.18 | Effect size, globus pallidum ([3]; control versus glutamine group): 0.48 | Effect size, hippocampus ([3]; control versus glutamine group): 0.47 | Effect size, nucleus accumbens ([3]; control versus glutamine group): 0.04 | Effect size, putamen ([3]; control versus glutamine group): 0.55 | Effect size, subcortical structures ([3]; control versus glutamine group): 0.50 | Effect size, thalamus ([3]; control versus glutamine group): 0.39 | Brain stem volume compared with preterm control group [3, 8]: significantly higher | Hippocampus volume compared with preterm control group [3, 8]: significantly higher | Subcortical volume compared with preterm control group [3, 8]: higher | Amygdala volume [3, 10]: 2.3 cm^3 | Brain stem volume [3, 10]: 18.9 cm^3 | Caudate Nucleus volume [3, 10]: 7.4 cm^3 | Corpus callosum [3, 10]: 535.7 mm^2 | Globus Pallidum volume [3, 10]: 3.5 cm^3 | Hippocampus volume [3, 10]: 7.2 cm^3 | Nucleus accumbens volume [3, 10]: 1.0 cm^3 | Putamen volume [3, 10]: 10.9 cm^3 | Subcortical structures volume [3, 10]: 66.5 cm^3 | Thalamus volume [3, 10]: 15.3 cm^3 | WISC-III FSIQ [4]: 102 | Neuronal activation (fMRI) [5]: more similar to term infants | Risk for atopic dermatitis [6]: decreases | Neurodevelopment outcome [7]: no effect
